Results on 9 molecules are retold here after patent publication US20210145764A1, “COMPOSITIONS OF CANNABIDIOL (CBD), AND/OR POLYPHENOLS, AND METHODS FOR THE PREVENTION AND/OR TREATMENT OF SKIN, MUSCLE, NERVE AND INFLAMMATORY DISORDERS, AND BIOLOGICAL FACTORS AND FUNCTIONS IN MAMMALS” (BRIGHAM YOUNG UNIVERSITY, priority 2019, published 2021).

One may read the Ki as a dissociation constant, usually derived from enzyme kinetics or from competition with a known ligand. A word on the IC50: it is the concentration needed to halve the response being measured.

The conditions of data set [1]: cited from earlier work.
The conditions of data set [2]: in vivo; cited from earlier work.
Data set [3] deals with full epidermal/dermal thickness human skin cultures. Nature of the data set: Histology (hematoxylin/eosin) of human skin cultures. Format: cell-based. Particulars: 0.3% CBD; 0.5% equol; combination; 40× magnification. How it is done:
FIG. 14 depicts photomicrographs (40× magnification) of full epidermal/dermal thickness human skin cultures. […] Standard bar=50 microns.
In human skin gene expression analysis full epidermal/dermal thickness human skin cultures were used.
The skin cultures were treated with: (a) transcutol vehicle; (b) 0.3% CBD; and (c) 0.5% equol and 0.3% CDB plus 0.5% equol.

The test system of data set [4] is full thickness epidermal/dermal human skin cultures. Briefly: MTT assay cell viability, full thickness skin cultures. Format: cell-based. The text has this: Testing CBD and equol at various concentration to determine tissue/cell viability as indicated on the y- and x-axis and figure labels for subsequent human skin gene analysis. Triton X-100 treatment (cytotoxic control). Note: The MTT assay is a colorimetric assay, which has been validated for measuring cell metabolic activity. It is based on the ability of nicotinamide adenine dinucleotide phosphate (NADPH)-dependent cellular oxidoreductase enzymes to reduce the tetrazolium dye MTT to its insoluble formazan, which has a purple color. The absorbance of this colored solution can be quantified by measuring at a certain wavelength (usually between 500 and 600 nm) by a spectrophotometer. The MTT method is one of the most widely used methods to analyze cell proliferation and viability in human skin cells (Triglia et al., 1991).
(Tetrazolium dyes change colour on reduction, which living cells bring about.)

Data set [5] deals with dermal layer (only) of the human skin cultures. Briefly: MTT assay viability, dermal layer (only). Format: cell-based. The source says: Testing CBD and equol at various concentration to determine tissue/cell viability as indicated on the y- and x-axis and figure labels for subsequent human skin gene analysis. Triton X-100 treatment (cytotoxic control).
The target in data set [6] is T1, 5α-Reductase Enzyme (type 1 in skin) (Homo sapiens, UniProt P18405).
T1 sequence (P18405 1-259): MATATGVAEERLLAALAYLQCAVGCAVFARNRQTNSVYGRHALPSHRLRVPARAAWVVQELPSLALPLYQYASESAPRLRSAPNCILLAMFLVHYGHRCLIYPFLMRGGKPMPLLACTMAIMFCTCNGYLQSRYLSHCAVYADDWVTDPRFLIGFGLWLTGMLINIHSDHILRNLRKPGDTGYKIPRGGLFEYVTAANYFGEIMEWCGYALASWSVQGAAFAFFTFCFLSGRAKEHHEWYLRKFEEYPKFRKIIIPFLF
As to conditions: cited from earlier work.

For data set [7], the target named is Estrogen Receptor Beta (β) (Homo sapiens, UniProt Q92731). Particulars: cited from earlier work; for Ki: read-out: Binds Estrogen Receptor Beta (β), Ki.
The target of data set [8] is Estrogen Receptor Alpha (α) (Homo sapiens, UniProt P03372). Particulars: cited from earlier work; for Ki: read-out: Binds Estrogen Receptor Alpha (α), Ki.
The conditions of data set [9]: cited from earlier work. The source holds these as a separate data set.
The test system of data set [10] is Collagen. As to conditions: cited from earlier work.
For data set [11], the system named is Elastin. As to conditions: cited from earlier work.
Data set [12] relates to TIMP1. Particulars: cited from earlier work.
The test system of data set [13] is MMPs. Particulars: cited from earlier work.
The subject of data set [14] is Growth Factors. Particulars: cited from earlier work.
The subject of data set [15] is Inflammatory Molecules. As to conditions: cited from earlier work.
The conditions of data set [16]: drug delivery studies; cited from earlier work.
For data set [17], the system named is human skin biomarkers. Particulars: cited from earlier work.
Data set [18] addresses T2, Estrogen Related Receptor gamma (γ) (Homo sapiens, UniProt P62508).
T2 sequence (P62508 1-458): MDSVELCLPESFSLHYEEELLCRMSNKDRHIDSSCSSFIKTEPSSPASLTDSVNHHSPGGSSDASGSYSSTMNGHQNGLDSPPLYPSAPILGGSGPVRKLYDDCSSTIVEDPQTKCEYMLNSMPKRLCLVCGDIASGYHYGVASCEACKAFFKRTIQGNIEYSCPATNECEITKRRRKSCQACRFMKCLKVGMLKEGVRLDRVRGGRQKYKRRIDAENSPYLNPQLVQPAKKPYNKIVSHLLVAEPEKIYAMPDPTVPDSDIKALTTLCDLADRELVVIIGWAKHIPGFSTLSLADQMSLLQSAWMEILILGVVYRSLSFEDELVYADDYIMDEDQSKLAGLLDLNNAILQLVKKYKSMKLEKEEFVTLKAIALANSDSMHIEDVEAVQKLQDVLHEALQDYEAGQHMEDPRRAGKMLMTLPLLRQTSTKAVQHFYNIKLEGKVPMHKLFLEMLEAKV
Particulars: cited from earlier work.

Data set [19] relates to AP-1. Particulars: same concentrations; cited from earlier work.
In data set [20] the test system is Elastase. Particulars: cited from earlier work.
The target in data set [21] is T3, Nrf2 (Homo sapiens, UniProt Q16236).
T3 sequence (Q16236 1-605): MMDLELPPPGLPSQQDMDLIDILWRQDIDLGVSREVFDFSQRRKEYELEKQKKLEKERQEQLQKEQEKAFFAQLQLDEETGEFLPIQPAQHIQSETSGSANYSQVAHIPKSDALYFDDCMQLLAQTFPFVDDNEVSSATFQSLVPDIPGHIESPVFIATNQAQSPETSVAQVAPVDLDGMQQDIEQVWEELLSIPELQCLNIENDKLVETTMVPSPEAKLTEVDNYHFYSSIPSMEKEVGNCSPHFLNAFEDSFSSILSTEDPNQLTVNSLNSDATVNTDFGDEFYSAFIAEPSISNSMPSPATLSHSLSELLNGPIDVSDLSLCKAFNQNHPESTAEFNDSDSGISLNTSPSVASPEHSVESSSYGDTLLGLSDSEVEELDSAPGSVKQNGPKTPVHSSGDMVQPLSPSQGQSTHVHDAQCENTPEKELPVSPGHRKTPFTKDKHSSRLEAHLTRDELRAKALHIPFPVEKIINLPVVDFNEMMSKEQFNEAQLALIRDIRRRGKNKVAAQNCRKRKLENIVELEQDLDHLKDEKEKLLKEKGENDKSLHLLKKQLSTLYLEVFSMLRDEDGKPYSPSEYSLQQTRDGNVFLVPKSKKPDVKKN
As to conditions: cited from earlier work.

In data set [22] the test system is NFkappB. Particulars: cited from earlier work.
For data set [23] the following is noted: single topical dose, human skin; cited from earlier work.
The conditions of data set [24]: cited from earlier work. This is another data set of the same source.
For data set [25] the following is noted: 12 weeks; Equol alone at 0.3%; cited from earlier work.

Chain of Estrogen Receptor Beta (β) (Q92731 whole entry, species assumed): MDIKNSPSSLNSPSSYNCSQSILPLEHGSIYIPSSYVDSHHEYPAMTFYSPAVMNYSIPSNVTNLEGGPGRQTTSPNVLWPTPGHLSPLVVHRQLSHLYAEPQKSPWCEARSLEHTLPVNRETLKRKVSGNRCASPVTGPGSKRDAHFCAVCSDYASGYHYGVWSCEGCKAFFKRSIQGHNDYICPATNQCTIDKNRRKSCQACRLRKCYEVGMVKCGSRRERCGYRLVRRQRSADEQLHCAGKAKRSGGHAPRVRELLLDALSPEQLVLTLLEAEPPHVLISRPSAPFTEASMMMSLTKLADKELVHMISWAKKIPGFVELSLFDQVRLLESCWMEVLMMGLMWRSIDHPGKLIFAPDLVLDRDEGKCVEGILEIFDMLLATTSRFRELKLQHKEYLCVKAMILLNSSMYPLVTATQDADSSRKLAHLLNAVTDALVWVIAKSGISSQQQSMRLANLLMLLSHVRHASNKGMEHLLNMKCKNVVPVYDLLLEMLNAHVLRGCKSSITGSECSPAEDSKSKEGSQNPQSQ
Chain of Estrogen Receptor Alpha (α) (P03372 whole entry): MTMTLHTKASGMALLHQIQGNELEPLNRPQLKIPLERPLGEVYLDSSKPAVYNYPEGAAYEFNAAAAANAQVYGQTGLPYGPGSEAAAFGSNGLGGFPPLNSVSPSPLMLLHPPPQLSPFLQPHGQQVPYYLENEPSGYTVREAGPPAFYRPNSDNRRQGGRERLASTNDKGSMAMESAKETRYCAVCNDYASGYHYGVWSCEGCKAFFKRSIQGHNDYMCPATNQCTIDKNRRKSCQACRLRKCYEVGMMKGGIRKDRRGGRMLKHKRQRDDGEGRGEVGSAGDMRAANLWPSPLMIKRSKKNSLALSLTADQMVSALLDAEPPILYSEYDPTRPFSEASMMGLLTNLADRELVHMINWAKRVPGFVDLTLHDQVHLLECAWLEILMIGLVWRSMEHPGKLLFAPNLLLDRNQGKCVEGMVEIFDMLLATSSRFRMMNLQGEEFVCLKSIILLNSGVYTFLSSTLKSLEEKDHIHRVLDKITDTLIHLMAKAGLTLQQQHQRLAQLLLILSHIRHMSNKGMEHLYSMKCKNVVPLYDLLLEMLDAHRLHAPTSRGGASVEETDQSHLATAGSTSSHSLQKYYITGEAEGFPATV

As for `CCCCCc1cc(O)c2c(c1)OC(C)(C)[C@@H]1CCC(C)=C[C@@H]21` [THC, tetrahydrocannabinol], in [1] (organic solvents, particularly lipids and alcohols), the “solubility in most organic solvents” value was “good solubility”. Besides, in data set [1] (water), the solubility in water result is “low solubility”.

In the case of `O=c1c(-c2ccc(O)cc2)coc2cc(O)cc(O)c12` [genistein], in data set [2], the intestinal absorption levels is 15-20%.

On to `C=C(C)[C@@H]1CCC(C)=C[C@H]1c1c(O)cc(CCCCC)cc1O` [CBD, cannabidiol], for which, in [3], the “epidermal and dermal components and epidermal/dermal borders (histology)” value was “intact and healthy”. For the same molecule, the “relative percent cell viability, full thickness cultures (MTT)” value in data set [4] (FIG. 15) was “around 100%”. Also, the “relative percent cell viability, dermal layer only (MTT)” value in data set [5] (FIG. 16) was “around 100%”.

`Oc1ccc([C@H]2COc3cc(O)ccc3C2)cc1` [S-Equol, S-equol]: in data set [6], the “Inhibits 5α-Reductase Enzyme (type 1 in skin)” value (“Inhibits 5α-Reductase Enzyme” for short) is recorded as “No”. Moreover, in data set [7] (as well as 17β-estradiol), the “binding to estrogen receptor beta relative to 17β-estradiol” value is recorded as “approximately ⅕”. The Ki in [7] was 6.4 nM. For the same molecule, in data set [8], the “affinity for ER alpha” value is “low affinity” and the Ki is 15.4 nM. Moreover, the “Oral Metabolism in Humans (pharmacokinetics compared to each other)” value in data set [9] is “Similar”. In [10], the “Stimulates Collagen” value is “Yes”. The “Stimulates Elastin” value in data set [11] is “No”. Moreover, in [12], the “Stimulates TIMPI” value is “Yes”. Besides, the “Inhibits MMPs” value in data set [13] is recorded as “Yes, to low levels of”. The “Stimulates Growth Factors” value in data set [14] is given as “Yes, to low levels”. For the same molecule, the “Inhibits Inflammatory Molecules” value in [15] is recorded as “Yes, low inhibition”.

As to `Oc1ccc([C@@H]2COc3cc(O)ccc3C2)cc1` [R-Equol, R-equol], the “Inhibits 5α-Reductase Enzyme” value in data set [6] is on record as “Yes”. For the same molecule, in [7], the “affinity for ERβ” value is recorded as “weak affinity” and the Ki is 15.4 nM. Also, in [8], the “affinity for ER alpha” value was “weak affinity” and the Ki is 27.4 nM. In addition, the “Oral Metabolism in Humans (pharmacokinetics compared to each other)” value in [9] is given as “Similar”. Also, in [10], the “Stimulates Collagen” value is “Yes”. Also, the “Stimulates Elastin” value in data set [11] is given as “Yes”. In data set [12], the “Stimulates TIMPI” value was “No, or at very low”. Also, the “Stimulates Growth Factors” value in data set [14] is recorded as “Yes, to high levels”. Moreover, the “Inhibits Inflammatory Molecules” value in [15] is “Yes, high inhibition”. For the same molecule, the “more stable isomer, R-equol vs. S-equol” value in data set [16] was “more stable isomer”.

On to `CC1=C(/C=C/C(C)=C/C=C/C(C)=C/C=C/C=C(C)/C=C/C=C(C)/C=C/C2=C(C)C(=O)[C@@H](O)CC2(C)C)C(C)(C)C[C@H](O)C1=O` [astaxanthin, reference compound], for which the “number of human skin biomarkers/genes significantly altered” value in data set [17] is recorded as 6.

Turning to `O=c1c(-c2ccc(O)cc2)coc2cc(O)ccc12` [daidzein, reference compound], in [18], the “transcriptional activity of ERR γ” value is “did not have this effect”. Moreover, the “TPA-induced activation of AP-1” value in data set [19] is listed as “did not exert any effect”. Also, the intestinal absorption levels in [2] is 30-40%.

For the molecule `Oc1ccc(C2COc3cc(O)ccc3C2)cc1` (racemic) [Racemic Equol, equol], in data set [6], the “Inhibits 5α-Reductase Enzyme” value was “Yes”. Also, the IC50 was 200 nM in data set [7] (read-out: Binds Estrogen Receptor Beta (β), IC50) and 1500 nM in data set [8] (read-out: Binds Estrogen Receptor Alpha (α), IC50). The “Binds/Activates Estrogen Related Receptor gamma (γ)” value in [18] is “Yes”. In [9], the “Oral Metabolism in Humans (pharmacokinetics compared to each other)” value was “Similar”. Besides, the “Stimulates Collagen” value in data set [10] was “Yes”. The “Stimulates Elastin” value in data set [11] is “Yes”. Moreover, the “Inhibits Elastase” value in [20] is “Yes”. The “Stimulates TIMPI” value in data set [12] is recorded as “Yes”. Moreover, the “Inhibits MMPs” value in data set [13] is on record as “Yes, to moderate”. Moreover, the “Stimulates Growth Factors” value in data set [14] is “Yes, to moderate”. The “Binds Nrf2/activates other antioxidants” value in [21] was “Yes”. For the same molecule, the “Inhibits NFkappB” value in data set [22] is listed as “Yes, high inhibition”. Besides, the “Inhibits Inflammatory Molecules” value in data set [15] is reported as “Yes, high inhibition”. Moreover, the “TPA-induced activation of AP-1” value in data set [19] is reported as “dose-dependently attenuated”.

Regarding `Oc1ccc([C@H]2COc3cc(O)ccc3C2)cc1` (racemic) [Equol, equol], the “epidermal and dermal components and epidermal/dermal borders (histology)” value in data set [3] was “intact and healthy”. Moreover, the “relative percent cell viability, full thickness cultures (MTT)” value in [4] (human) is “around 100%”. In addition, the “relative percent cell viability, dermal layer only (MTT)” value in data set [5] (human) is reported as “around 100%”. Further, the “transcriptional activity of ERR γ” value in data set [18] was “enhanced”. For the same molecule, in data set [23], the “skin penetration profile, peak time” value is recorded as “around 8 hours” and the “sustained release after the initial application” value was “up to 28 hours”. Further, the “number of human skin biomarkers/genes significantly altered” value in [17] was 39. Further, the “circulates in the free or unbound form in plasma” value in data set [24] was “approximately 50%”. In [25], the “Even Skin Tone, Self-Assessment Questionnaire efficacy” value was 70%; the “Frown Lines/Wrinkles, Self-Assessment Questionnaire efficacy” value is 72%; the “Hydration, Self-Assessment Questionnaire efficacy” value is recorded as 71%; the “Pore Size, Self-Assessment Questionnaire efficacy” value is 51%. In data set [25], the “Radiance/Brightness, Self-Assessment Questionnaire efficacy” value is given as 73%; the “Skin Firmness, Self-Assessment Questionnaire efficacy” value was 77%; the “Smoothness, Self-Assessment Questionnaire efficacy” value is 62%; the “Spots/Discoloration, Self-Assessment Questionnaire efficacy” value is reported as 55%.
